Here are results for 60 compounds from patent US7507727B2, “Substituted quinobenzoxazine analogs and methods of using thereof” (Cylene Pharmaceuticals, Inc., priority 2003, dated 2009).

pIC50: −log10 of the molar value.

The first test addresses c-Myc template DNA (c-myc quadruplex). The test can be described thus: Quadruplex binding / stop assay (Taq polymerase arrest, capillary electrophoresis). Conditions: read-out: S DATA; Table 1D, stop assay data.
`N=C(N)NCCCNC(=O)c1cn2c3c(c(N4CC5CCCNC5C4)c(F)cc3c1=O)Oc1cc3ccccc3cc1-2` (stereo not drawn) [compound 1647]: the pIC50 was 6.00. For the compound `CN1CCCC1CCNC(=O)c1cn2c3c(c(NCCN4CCOCC4)c(F)cc3c1=O)Oc1ccccc1-2` (stereo not drawn) [compound 1608], the pIC50 is < 4.82. On to `CN1CCN(CCCNC(=O)c2cn3c4c(c(N5CCC(N)C5)c(F)cc4c2=O)Oc2ccccc2-3)CC1` (stereo not drawn) [compound 1621], for which the pIC50 was 6.12. The same measure, in the same setting: the figure for `CN(C)CC(C)(C)CNC(=O)c1cn2c3c(c(NCCCN4CCN(C)CC4)c(F)cc3c1=O)Oc1ccccc1-2` [compound 1580] is < 4.82. For `NC1CCN(C(=O)c2cn3c4c(c(NCCN5CCOCC5)c(F)cc4c2=O)Oc2ccccc2-3)C1` (stereo not drawn) [compound 1630], the pIC50 was < 4.82. Consider `O=C(NCCN1CCCC1)c1cn2c3c(c(NCC4CCCO4)c(F)cc3c1=O)Oc1cc(Cl)ccc1-2` (stereo not drawn) [compound 1794], for which the pIC50 is < 4.82.

For `CC(C)N1CCN(c2c(F)cc3c(=O)c(C(=O)NCCC4CCCN4C)cn4c3c2Oc2ccccc2-4)CC1` (stereo not drawn) [compound 1565], the pIC50 was < 4.82. As to `COc1ccc(OC)c(CCNc2c(F)cc3c(=O)c(C(=O)NCCC4CCCN4C)cn4c3c2Oc2cc3ccccc3cc2-4)c1` (stereo not drawn) [compound 1672], the pIC50 is 5.76. Turning to `O=C(NCCN1CCOCC1)c1cn2c3c(c(NCCN4CCOCC4)c(F)cc3c1=O)Oc1ccccc1-2` [compound 1605], the pIC50 is < 4.82. With `COCC(=O)N1CCN(c2c(F)cc3c(=O)c(C(=O)NCCN4CCCC4)cn4c3c2Oc2cc(Cl)ccc2-4)CC1` [compound 1825], the pIC50 is 5.00. Consider `O=C(NCCN1CCCC1)c1cn2c3c(c(N4CCC(c5cnccn5)C4)ccc3c1=O)Oc1ccccc1-2` (stereo not drawn) [compound 1722], for which the pIC50 is 5.52. Regarding `N#Cc1ccc2c(c1)-n1cc(C(=O)NCCN3CCCC3)c(=O)c3cc(F)c(N4CCC(c5cnccn5)C4)c(c31)O2` (stereo not drawn) [compound 1778], the pIC50 was 5.54. Consider `CN1CCCC1CCNC(=O)c1cn2c3c(c(NCC4OCCO4)c(F)cc3c1=O)Oc1cc3ccccc3cc1-2` (stereo not drawn) [compound 1745], for which the pIC50 is < 4.82.

Consider `CN1CCCC1CCNC(=O)c1cn2c3c(c(NCc4ccoc4)c(F)cc3c1=O)Oc1cc3ccccc3cc1-2` (stereo not drawn) [compound 1752], for which the pIC50 is < 4.82. In the case of `NC1CCN(c2c(F)cc3c(=O)c(C(=O)NCC(O)CO)cn4c3c2Oc2cc3ccccc3cc2-4)C1` (stereo not drawn) [compound 1704], the pIC50 is 5.76. Turning to `O=C(NCCN1CCCC1)c1cn2c3c(c(N4CCC(c5cnccn5)C4)c(F)cc3c1=O)Oc1ccccc1-2` (stereo not drawn) [compound 1724], the pIC50 is 4.96. Regarding `CN(CCCNc1c(F)cc2c(=O)c(C(=O)NCCC3CCCN3C)cn3c2c1Oc1cc2ccccc2cc1-3)c1ccccc1` (stereo not drawn) [compound 1503], the pIC50 is 5.76. As for `CN1CCCC1CCNC(=O)c1cn2c3c(c(NC(CO)CC4CCCCC4)c(F)cc3c1=O)Oc1cc3ccccc3cc1-2` (stereo not drawn) [compound 1748], the pIC50 is < 4.82. Take `N=C(N)NCCCCNC(=O)c1cn2c3c(c(NCCN4CCCC4)c(F)cc3c1=O)Oc1cc3ccccc3cc1-2` [compound 1655]: the pIC50 is 6.00. Turning to `N#Cc1ccc2c(c1)-n1cc(C(=O)NCCN3CCOCC3)c(=O)c3cc(F)c(N4CCC(N)C4)c(c31)O2` (stereo not drawn) [compound 1793], the pIC50 is 5.28. The same measure, in the same setting: the figure for `CN1CCCC1CCNC(=O)c1cn2c3c(c(SCCc4cnccn4)c(F)cc3c1=O)Oc1cc3ccccc3cc1-2` (stereo not drawn) [compound 1760] is 5.73. For `O=C(NCCN1CCCC1)c1cn2c3c(c(N4CCN(c5ncccn5)CC4)c(F)cc3c1=O)Oc1cc(Cl)ccc1-2` [compound 1813], the pIC50 is 5.29. On to `COc1ccc(CCNc2c(F)cc3c(=O)c(C(=O)NCCC4CCCN4C)cn4c3c2Oc2cc3ccccc3cc2-4)cc1` (stereo not drawn) [compound 1663], for which the pIC50 is 5.76. As to `CN(C)CCCCNC(=O)c1cn2c3c(c(NCCCN4CCN(C)CC4)ccc3c1=O)Oc1cc3ccccc3cc1-2` [compound 1555], the pIC50 is 6.12. In the case of `CC(C)(C)OC(=O)NC1CCN(c2c(F)cc3c(=O)c(C(=O)NCCN4CCOCC4)cn4c3c2Oc2ccccc2-4)C1` (stereo not drawn) [compound 1584], the pIC50 is < 4.82.

Staying with this test, now noted: read-out: Stop Data c-Myc μM; concentration at which 50% of the DNA was arrested (arrested:full-length 1:1).
Regarding `CN(C)CCCCNCCC(=O)N[C@@H]1CCN(c2c(F)cc3c(=O)c(C(=O)NCCCN4CCN(C)CC4)cn4c3c2Oc2cc3c(cc2-4)oc2ccccc23)C1` [compound 588], the IC50 amounted to 0.18 µM. Consider `O=C(NCCN1CCOCC1)c1cn2c3cc4c(cc3oc3c(NCCN5CCCC5)c(F)cc(c1=O)c32)c(=O)c1ccccc14` [compound 424], for which the IC50 was 0.75 µM. Take `CN1CCN(CCCNc2c(F)cc3c(=O)c(C(=O)NCCN4CCOCC4)cn4c3c2Oc2cc3c(cc2-4)oc2ccccc23)CC1` [compound 150]: the IC50 worked out at 1.75 µM. Turning to `CN1CCN(CCCNc2c(F)cc3c(=O)c(C(=O)NCCCN4CCOCC4)cn4c5cc6c(=O)c7ccccc7c(=O)c6cc5oc2c34)CC1` [compound 492], the IC50 was determined as 0.45 µM. With `CN1CCCC1CCNC(=O)c1cn2c3c(c(NCCN4CCCC4)ccc3c1=O)Oc1cc3ccccc3cc1-2` (stereo not drawn) [compound 266], the IC50 came to 1.75 µM. Same read-out and setting: in the case of `CN1CCCC1CCNc1c(F)cc2c(=O)c(C(=O)NCCN3CCOCC3)cn3c2c1Oc1cc2c(cc1-3)oc1ccccc12` (stereo not drawn) [compound 158] it was 1.75 µM. In the case of `CN1CCCC1CCNc1c(F)cc2c(=O)c(C(=O)NCCN3CCCC3)cn3c2c1Oc1cc2ccccc2cc1-3` (stereo not drawn) [compound 488], the IC50 worked out at 0.5 µM.

In the case of `CN1CCCC1CCNC(=O)c1cn2c3c(c(N)c(F)c(NCCCN4CCOCC4)c3c1=O)Oc1cc3ccccc3cc1-2` (stereo not drawn) [compound 191], the IC50 amounted to 1.75 µM. With `CN(C)CC(C)(C)CNC(=O)c1cn2c3c(c(NCCCN4CCOCC4)c(F)cc3c1=O)Oc1cc3ccccc3cc1-2` [compound 332], the IC50 was found to be 1 µM. Same read-out and setting: in the case of `CN1CCCC1CCNc1c(F)cc2c(=O)c(C(=O)NCCCN3CCOCC3)cn3c4cc5oc6cc([N+](=O)[O-])ccc6[nH]c5cc4oc1c23` (stereo not drawn) [compound 553] it was 0.375 µM; in that of `CC1CCCCN1CCCNC(=O)c1cn2c3c(c(N4CCC(NC(=O)OC(C)(C)C)C4)c(F)cc3c1=O)Oc1cc3ccccc3cc1-2` (stereo not drawn) [compound 185], 1.75 µM; in that of `O=C(NCCCN1CCOCC1)c1cn2c3c(c(NCCN4CCOCC4)c(F)cc3c1=O)Oc1cc3ccccc3cc1-2` [compound 53], 2.5 µM.

On to `Nc1c(F)c(N2CCC(N)C2)c2c3c1c(=O)c(C(=O)NCCN1CCOCC1)cn3-c1cc3ccccc3cc1O2` (stereo not drawn) [compound 238], for which the IC50 stood at 1.75 µM. For `CN1CCN(CCCNC(=O)c2cn3c4c(c(NCCN5CCOCC5)c(F)cc4c2=O)Oc2c-3ccc3ccccc23)CC1` [compound 130], the IC50 came out at 1.75 µM.

For the compound `CNC1CCN(c2c(F)cc3c(=O)c(C(=O)NCCC4CCCN4C)cn4c3c2Oc2cc3ccccc3cc2-4)C1` (stereo not drawn) [compound 430], the IC50 came to 0.75 µM. In the case of `CN1CCN(CCCNC(=O)c2cn3c4c(c(NCCN5CCOCC5)c(F)cc4c2=O)Oc2cc4ccccc4cc2-3)CC1` [compound 55], the IC50 was found to be 2.5 µM. For the compound `CN1CCCC1CCNC(=O)c1cn2c3c(c(N4CCC(NC(=O)OC(C)(C)C)CC4)c(F)cc3c1=O)Oc1cc3ccccc3cc1-2` (stereo not drawn) [compound 262], the IC50 was 1.75 µM. As for `CN1CCCC1CCNC(=O)c1cn2c3c(c(N)c(F)c(N4CC[C@H](N)C4)c3c1=O)Oc1cc3ccccc3cc1-2` (stereo partly drawn) [compound 189], the IC50 stood at 1.75 µM. As to `CC(C)(C)OC(=O)NC1CCN(c2c(F)c(N)c3c(=O)c(C(=O)NCCN4CCCC4)cn4c3c2Oc2cc3ccccc3cc2-4)C1` (stereo not drawn) [compound 224], the IC50 worked out at 1.75 µM.

On to `CN(C)CCCNC(=O)c1cn2c3c(c(N4CCC(N)C4)c(F)cc3c1=O)Oc1cc3ccccc3cc1-2` (stereo not drawn) [compound 246], for which the IC50 amounted to 1.75 µM. On the same count and under the same terms, the figure for `CN(C)CCCCNC(=O)c1cn2c3c(c(N4CCC(NC(=O)OC(C)(C)C)C4)c(F)c(N)c3c1=O)Oc1cc3ccccc3cc1-2` (stereo not drawn) [compound 228] is 1.75 µM; for `O=C(NCCN1CCOCC1)c1cn2c3cc4c(cc3oc3c(NCCCN5CCOCC5)c(F)cc(c1=O)c32)c(=O)c1ccccc14` [compound 425] it is 0.75 µM; for `CN1CCCC1CCNc1c(F)cc2c(=O)c(C(=O)NCCCn3ccnc3)cn3c2c1Oc1c-3ccc2ccccc12` (stereo not drawn) [compound 135] it is 1.75 µM. As to `CN1CCCC1CCNC(=O)c1cn2c3c(c(NC4CN5CCC4CC5)c(F)cc3c1=O)Oc1cc3ccccc3cc1-2` (stereo not drawn) [compound 435], the IC50 came out at 0.75 µM. With `CN1CCCC1CCNC(=O)c1cn2c3c(c(NCCCCN4CCCC4)c(F)cc3c1=O)Oc1cc3ccccc3cc1-2` (stereo not drawn) [compound 440], the IC50 came to 0.75 µM. `CN(C)CCCCNc1c(F)cc2c(=O)c(C(=O)NCCCN3CCN(C)CC3)cn3c2c1Oc1c-3ccc2ccccc12` [compound 478]: the IC50 came to 0.53 µM. With `CN1CCCC1CCNC(=O)c1cn2c3c(c(NCCN4CCCCC4)c(F)cc3c1=O)Oc1cc3ccccc3cc1-2` (stereo not drawn) [compound 432], the IC50 came out at 0.75 µM. Take `CN1CCN(CCCNC(=O)c2cn3c4cc5c(=O)c6ccccc6c(=O)c5cc4oc4c(N5CCC(N)C5)c(F)cc(c2=O)c43)CC1` (stereo not drawn) [compound 91]: the IC50 is 2.5 µM. Still for that read-out and setting: in the case of `O=C(O)c1cn2c3c(c(NCCCN4CCOCC4)c(F)cc3c1=O)Oc1cc3c(cc1-2)-c1ccccc1C3` [compound 6] it was 1.75 µM; in that of `CN1CCC(NC(=O)c2cn3c4c(c(N5CCC(N)C5)c(F)cc4c2=O)Oc2cc4ccccc4cc2-3)CC1` (stereo not drawn) [compound 467], 0.75 µM; in that of `N[C@@H]1CCN(C(=O)c2cn3c4c(c(NCCN5CCCC5)c(F)cc4c2=O)Oc2c-3ccc3ccccc23)C1` [compound 86], 2.5 µM. With `CN(C)CCCCNC(=O)c1cn2c3c(c(NCCCCN(C)C)c(F)cc3c1=O)Oc1cc3ccccc3cc1-2` [compound 126], the IC50 came out at 1.75 µM.

With `Nc1c(F)c(NCCCN2CCOCC2)c2c3c1c(=O)c(C(=O)N1CCOCC1)cn3-c1cc3ccccc3cc1O2` [compound 222], the IC50 was 1.75 µM. Still for that read-out and setting: the figure for `CN(C)CCCCNc1c(F)cc2c(=O)c(C(=O)NCCC3CCCN3C)cn3c4cc5c(=O)c6ccccc6c(=O)c5cc4oc1c23` (stereo not drawn) [compound 354] is 0.9 µM. Regarding `CN(C)c1ccc(NC(=O)c2cn3c4c(c(N5CC[C@@H](N)C5)c(F)cc4c2=O)Oc2c-3ccc3ccccc23)cc1` [compound 82], the IC50 was determined as 2.5 µM.
